One assay addresses Estrogen receptor (Homo sapiens, UniProt Q92731+P03372). The settings on record: mcf7.
The species entered for another assay is Homo sapiens. Description: Inhibition of Calmodulin activation of cyclic nucleotide phosphodiesterase. The class given is functional. The settings on record: concentration not given here.

Among the data in ChEMBL document CHEMBL1125398, “Antiestrogens. 3. Estrogen receptor affinities and antiproliferative effects in MCF-7 cells of phenolic analogues of trioxifene, [3,4-dihydro-2-(4- methoxyphenyl)-1-naphthalenyl][4-[2-(1-pyrrolidinyl)ethoxy]- phenyl]methanone” (J Med Chem, 1992) are IC50 and inhibition values, retold here.

Description for Estrogen receptor: Displacement of [3H]estradiol from Estrogen receptor in MCF-7 cells

Molecule `O=C(C1=C(c2ccc(O)cc2)CCc2cc(O)ccc21)c1ccc(OCCN2CCCCC2)cc1` gave an IC50 against Estrogen receptor of 0.073 µM. This molecule also displayed an inhibition in the assay filed under Homo sapiens of 2%.
As to `O=C(C1=C(c2ccccc2)CCc2cc(O)ccc21)c1ccc(OCCN2CCCCC2)cc1`, the half-maximal inhibitory concentration (IC50) on Estrogen receptor stood at 1.65 µM. In the assay listed under Homo sapiens, this molecule showed an inhibition of 6%.
With `O=C(c1ccc(OCCN2CCCC2)cc1)c1c(-c2ccc(O)cc2)sc2cc(O)ccc12` [LY-117018], the IC50 against Estrogen receptor came to 0.12 µM. This molecule also registered an inhibition in the assay filed under Homo sapiens of 3%.
In turn, `O=C(c1ccc(OCCN2CCCCC2)cc1)c1c(-c2ccc(O)cc2)sc2cc(O)ccc12` had an inhibition in the assay listed under Homo sapiens of 6%.
Regarding `Oc1ccc2c(c1)C(c1ccc(OCCN3CCCCC3)cc1)c1c-2ccc2cc(O)ccc12` (configuration not stated), the IC50 against Estrogen receptor is 0.125 µM. In addition, in the assay filed under Homo sapiens, the inhibition is 18%.
On to `Oc1ccc2c3c(ccc2c1)-c1ccccc1C3c1ccc(OCCN2CCCCC2)cc1` (configuration not stated), for which the IC50 at Estrogen receptor is 0.74 µM. This molecule also showed an inhibition in the assay filed under Homo sapiens of 22%.
In the assay listed under Homo sapiens, `CC/C(=C(\c1ccccc1)c1ccc(OCCN(C)C)cc1)c1ccccc1` showed an inhibition of 44%.
